Test results from patent US20180344702A1, “METHODS FOR TREATING PATIENTS WITH HEMATOLOGIC MALIGNANCIES” (Aptose Biosciences, Inc., priority 2017, published 2018).
One block for each compound: values may come before it.

Experiments:
[1] = tested on: Ba/F3 cells transfected with FLT3 WT; experiment: Cytotoxicity in isogenic transfected Ba/F3 cells (Table 4); assay type: cell-based, Murin; conditions: Mus musculus, BaF3; n = 3; read-out: IC50 in Transfected Ba/F3 cells, FLT3 WT
[2] = tested on: Ba/F3 cells transfected with FLT3 D835Y; experiment: as above; assay type: cell-based, Murin; conditions: Mus musculus, BaF3; n = 3; read-out: IC50 in Transfected Ba/F3 cells, FLT3 D835Y
[3] = tested on: Ba/F3 cells transfected with FLT3 ITD; experiment: as above; assay type: cell-based, Murin; conditions: Mus musculus, BaF3; n = 3; read-out: IC50 in Transfected Ba/F3 cells, FLT3 ITD
[4] = tested on: Ba/F3 cells transfected with FLT3 ITD-D835Y; experiment: as above; assay type: cell-based, Murin; conditions: Mus musculus, BaF3; n = 3; read-out: IC50 in Transfected Ba/F3 cells, FLT3 ITD-D835Y
[5] = tested on: Ba/F3 cells transfected with FLT3 ITD-F691L; experiment: as above; assay type: cell-based, Murin; conditions: Mus musculus, BaF3; n = 3; read-out: IC50 in Transfected Ba/F3 cells, FLT3 ITD-F691L
Ba/F3-FLT3 (FLT3-WT) = experiment: Antiproliferative activity (Table 6); assay type: cell-based, Murin; conditions: Ba/F3-FLT3, FLT3-WT; 48 h (Gilteritinib); read-out: IC50
Ba/F3-ITD (FLT3-ITD) = experiment: Antiproliferative activity (Table 6); assay type: cell-based, Murin; conditions: Ba/F3-ITD; 48 h (Gilteritinib); read-out: IC50
Ba/F3-D835G (FLT3-D835G) = experiment: Antiproliferative activity (Table 6); assay type: cell-based, Murin; conditions: Ba/F3-D835G; 48 h (Gilteritinib); read-out: IC50
Ba/F3-D835Y (FLT3-D835Y) = experiment: Antiproliferative activity (Table 6); assay type: cell-based, Murin; conditions: Ba/F3-D835Y; 48 h (Gilteritinib); read-out: IC50
[6] = tested on: Ba/F3-ITD + 691 (ITD + F691L); experiment: Antiproliferative activity (Table 6); assay type: cell-based, Murin; conditions: Ba/F3-ITD + 691 (ITD + F691L); 48 h (Gilteritinib); read-out: IC50
[7] = tested on: Ba/F3-ITD + 842 (ITD + Y842C); experiment: Antiproliferative activity (Table 6); assay type: cell-based, Murin; conditions: Ba/F3-ITD + 842 (ITD + Y842C); 48 h (Gilteritinib); read-out: IC50
[8] = tested on: Ba/F3-ITD + D835Y (FLT3-ITD + D835Y); experiment: Antiproliferative activity (Table 6); assay type: cell-based, Murin; conditions: Ba/F3-ITD + D835Y; 48 h (Gilteritinib); read-out: IC50
[9] = tested on: Ba/F3-ITD + D835H (FLT3-ITD + D835H); experiment: Antiproliferative activity (Table 6); assay type: cell-based, Murin; conditions: Ba/F3-ITD + D835H; 48 h (Gilteritinib); read-out: IC50
[10] = tested on: MOLM13 (FLT3-ITD, t(9:11)); experiment: Antiproliferative activity (Table 6); assay type: cell-based; conditions: Homo sapiens, MOLM-13; MOLM13; 48 h (Gilteritinib); read-out: IC50
[11] = tested on: MOLM14 (FLT3-ITD, t(9:11)); experiment: Antiproliferative activity (Table 6); assay type: cell-based; conditions: Homo sapiens, MOLM-14; MOLM14; 48 h (Gilteritinib); read-out: IC50
[12] = tested on: MV4-11 (FLT3-ITD, t(4:11)); experiment: Antiproliferative activity (Table 6); assay type: cell-based; conditions: Homo sapiens; MV4-11; 48 h (Gilteritinib); read-out: IC50
THP-1 (FLT3-WT, t(9:11)) = experiment: Antiproliferative activity (Table 6); assay type: cell-based; conditions: Homo sapiens; THP-1; 48 h (Gilteritinib); read-out: IC50
Kasumi-1 (FLT3-WT) = experiment: Antiproliferative activity (Table 6); assay type: cell-based; conditions: Homo sapiens; Kasumi-1; 48 h (Gilteritinib); read-out: IC50
BTK WT = BTK WT (Homo sapiens, UniProt Q06187); experiment: Comparative potency against BTK (Table 8); assay type: biochemical; conditions: Table 8, wild-type BTK
BTK C481S = BTK C481S (Homo sapiens, UniProt Q06187, C481S); experiment: Comparative potency against BTK (Table 8); assay type: biochemical; conditions: x printed without key
ITK = ITK (Homo sapiens, UniProt Q08881); experiment: Key off-targets (Table 8); assay type: biochemical
ITK, sequence (Q08881 whole entry): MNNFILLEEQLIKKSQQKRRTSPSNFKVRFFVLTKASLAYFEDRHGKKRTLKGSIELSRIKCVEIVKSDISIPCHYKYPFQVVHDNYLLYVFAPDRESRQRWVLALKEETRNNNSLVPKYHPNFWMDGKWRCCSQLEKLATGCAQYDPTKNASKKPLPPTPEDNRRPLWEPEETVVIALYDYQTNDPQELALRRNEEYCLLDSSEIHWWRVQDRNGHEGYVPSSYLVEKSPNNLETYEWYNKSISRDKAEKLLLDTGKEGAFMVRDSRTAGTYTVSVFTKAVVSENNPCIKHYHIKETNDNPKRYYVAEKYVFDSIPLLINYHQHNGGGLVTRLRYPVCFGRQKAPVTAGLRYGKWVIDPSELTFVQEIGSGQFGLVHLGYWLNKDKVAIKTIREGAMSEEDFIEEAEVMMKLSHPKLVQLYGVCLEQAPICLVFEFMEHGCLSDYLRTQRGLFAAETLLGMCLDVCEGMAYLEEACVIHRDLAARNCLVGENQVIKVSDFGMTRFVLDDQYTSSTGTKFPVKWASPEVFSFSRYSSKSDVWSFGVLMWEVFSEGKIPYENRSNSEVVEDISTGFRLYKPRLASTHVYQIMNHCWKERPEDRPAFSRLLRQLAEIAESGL

BTK C481S, sequence (Q06187 whole entry C481S): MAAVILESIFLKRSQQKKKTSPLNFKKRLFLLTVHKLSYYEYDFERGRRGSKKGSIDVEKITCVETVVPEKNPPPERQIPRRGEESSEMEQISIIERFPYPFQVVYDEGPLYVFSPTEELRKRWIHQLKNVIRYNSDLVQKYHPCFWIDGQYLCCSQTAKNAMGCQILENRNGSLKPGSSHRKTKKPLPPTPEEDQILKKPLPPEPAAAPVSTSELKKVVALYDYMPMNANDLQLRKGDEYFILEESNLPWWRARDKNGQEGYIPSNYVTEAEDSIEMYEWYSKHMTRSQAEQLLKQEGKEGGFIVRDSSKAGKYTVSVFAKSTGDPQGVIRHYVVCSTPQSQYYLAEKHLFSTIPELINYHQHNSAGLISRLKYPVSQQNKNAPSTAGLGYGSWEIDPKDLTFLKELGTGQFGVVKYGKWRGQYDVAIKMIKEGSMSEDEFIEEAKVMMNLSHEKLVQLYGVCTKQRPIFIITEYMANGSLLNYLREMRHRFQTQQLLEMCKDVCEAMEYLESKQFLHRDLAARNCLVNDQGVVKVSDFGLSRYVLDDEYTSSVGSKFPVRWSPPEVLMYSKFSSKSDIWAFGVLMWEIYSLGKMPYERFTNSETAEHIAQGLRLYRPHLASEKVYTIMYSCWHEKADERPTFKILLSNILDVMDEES
BTK WT, sequence (Q06187 whole entry): as the sequence (Q06187 whole entry C481S) above, with S481C counted along it

Structure (SMILES): CC1(COc2ccc3c(c2)ncn3-c2ccc3cccc(N4CCC(N)CC4)c3n2)COC1 [Crenolanib]
IC50 [1]: 2.62 µM
IC50 [2]: 0.889 µM
IC50 [3]: 0.035 µM
IC50 [4]: 0.0317 µM
IC50 [5]: 0.258 µM

IC50 (Ba/F3-FLT3 (FLT3-WT)): 0.0795 µM
IC50 (Ba/F3-ITD (FLT3-ITD)): 0.0362 µM
IC50 (Ba/F3-D835G (FLT3-D835G)): 0.0281 µM
IC50 (Ba/F3-D835Y (FLT3-D835Y)): 0.373 µM
IC50 [6]: 0.119 µM
IC50 [7]: 0.0447 µM
IC50 [8]: 0.0106 µM
IC50 [9]: 0.0104 µM
IC50 [10]: 0.0358 µM
IC50 [11]: 0.0588 µM
IC50 [12]: 0.176 µM
IC50 (THP-1 (FLT3-WT, t(9:11))): 2.3 µM
Structure (SMILES): CCc1nc(C(N)=O)c(Nc2ccc(N3CCC(N4CCN(C)CC4)CC3)c(OC)c2)nc1NC1CCOCC1 [Gilteritinib, reference compound]
IC50 [1]: 0.5 µM
IC50 [2]: 0.473 µM
IC50 [3]: 0.0265 µM
IC50 [4]: 0.0068 µM
IC50 [5]: 0.0984 µM
IC50 (Kasumi-1 (FLT3-WT)): 2.23 µM

IC50 (BTK WT): 0.0004 µM
IC50 (BTK C481S): 0.0045 µM
IC50 (ITK): 0.049 µM
Structure (SMILES): NC(=O)[C@H]1CCN(c2ncnc(N)c2F)C[C@@H]1N1CCC[C@@H](Nc2cc(Cl)cc(C(F)(F)F)c2)C1=O [SNS-062, reference compound]
